Test results: US20070292489A1, “METHOD FOR TREATMENT OF WOUND TREATMENT USING AGANOCIDES” (priority 2006, published 2007)

Test system: human secondary intention wound
Test: Vacuum-assisted wound treatment combined with intermittent aganocide instillation
Format: in vivo
Settings: pH about 4, 0.9% NaCl, 2-hour pumping at 125 mm Hg
Procedure: A human secondary intention wound approximately 3-4 cm in diameter is fitted with a polyurethane sponge, pore size 400-600 microns cut to the size of the wound and twice the thickness of the wound and covered with an adhesive film, per instructions on the vacuum system. The outlet is connected to an IV bag (500 ml) with a 0.1% sodium 2-dichloroamino-2-methylpropanesulfonate solution adjusted with HCl to a pH of about 4, 0.9% NaCl and elevated to between 0.1 and 1 meter above the wound. A 1-cm hole is punctured in the adhesive film, and a second adhesive film is used to cover the hole, with the second outlet connected to the vacuum pump.
Each cycle consists of three phases: a 2-hour pumping phase when the vacuum (125 mm Hg negative pressure) is connected and the IV bag is disconnected; a 1 second instilling phase when the vacuum is disconnected and the IV bag is connected and the aganoocide is applied to the wound; and a 1 minute holding phase when both vacuum and the IV bag are disconnected.
Each treatment has about 24 cycles and starts with a pumping phase and proceeds for 48 hours. When the treatment is completed, the dressings are changed and the treatment is repeated until full granulation has been promoted and the granulation tissue is within the level of the skin, approximately 30 to 100 days, depending on the depth of the original wound. […]

CC(C)(CS(=O)(=O)[O-])N(Cl)Cl.[Na+] [Sodium 2-dichloroamino-2-methylpropanesulfonate]
wound healing results of the combination treatment regimen compared with vacuum-assisted wound healing without aganocide or aganocide alone (Example 1: 0.1% solution, 1 second instilling, 1 minute holding, about 24 cycles per 48 hours): superior wound healing results | wound healing results of the combination treatment regimen compared with vacuum-assisted wound healing without aganocide or aganocide alone (Example 2: 0.1% solution, 5 second instilling, 30 minute holding, about 19 cycles per 48 hours): superior wound healing results
